Test results from patent publication US11040981B2, “Pyrrolotriazine compounds and methods of inhibiting TAM kinases” (Syros Pharmaceuticals, Inc., priority 2017, dated 2021).

What was measured:
[1] = molecular target: T1, MERTK (Homo sapiens, UniProt Q12866); assay: TR-FRET kinase activity assay, MERTK; type: biochemical; details: for IC50: TR-FRET activity assay, ATP at Km, 60 minutes, read-out: Mer IC50; for FLT3/Mer ratio (FLT3 IC50/Mer IC50): ratio of Mer to FLT3: FLT3 IC50/Mer IC50
T1 sequence (Q12866 21-999): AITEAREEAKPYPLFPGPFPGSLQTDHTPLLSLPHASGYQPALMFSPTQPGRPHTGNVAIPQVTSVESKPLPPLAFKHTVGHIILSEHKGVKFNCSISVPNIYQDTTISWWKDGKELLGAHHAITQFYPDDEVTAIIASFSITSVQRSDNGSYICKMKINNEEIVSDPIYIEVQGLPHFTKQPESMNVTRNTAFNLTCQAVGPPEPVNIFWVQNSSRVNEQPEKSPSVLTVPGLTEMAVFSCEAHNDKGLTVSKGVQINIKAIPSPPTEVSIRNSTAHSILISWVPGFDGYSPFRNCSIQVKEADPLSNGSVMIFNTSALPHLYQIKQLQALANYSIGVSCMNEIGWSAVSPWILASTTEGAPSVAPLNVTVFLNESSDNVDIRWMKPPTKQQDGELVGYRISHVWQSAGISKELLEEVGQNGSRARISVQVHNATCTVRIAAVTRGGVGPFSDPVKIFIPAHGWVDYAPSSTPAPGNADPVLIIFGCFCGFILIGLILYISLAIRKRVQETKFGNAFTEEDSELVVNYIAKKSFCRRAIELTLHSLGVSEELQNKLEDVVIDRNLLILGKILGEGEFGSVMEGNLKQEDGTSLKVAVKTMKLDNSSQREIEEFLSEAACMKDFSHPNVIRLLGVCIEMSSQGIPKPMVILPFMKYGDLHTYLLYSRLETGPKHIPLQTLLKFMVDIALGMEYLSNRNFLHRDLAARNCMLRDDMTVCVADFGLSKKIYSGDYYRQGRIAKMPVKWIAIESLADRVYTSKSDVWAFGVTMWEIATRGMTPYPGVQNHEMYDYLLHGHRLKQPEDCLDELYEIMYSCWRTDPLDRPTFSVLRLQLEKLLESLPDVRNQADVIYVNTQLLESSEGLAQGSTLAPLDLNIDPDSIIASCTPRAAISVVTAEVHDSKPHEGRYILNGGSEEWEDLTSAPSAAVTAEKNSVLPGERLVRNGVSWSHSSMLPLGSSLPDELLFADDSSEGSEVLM
Summary of the method: (§1)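 Compounds were tested against each kinase with ATP set at its own Km and a labelled tyrosine peptide substrate. Following one hour at room temperature in buffer containing 10 mM MgCl2 and 1 mM DTT, phosphorylated product was detected by Europium antibody TR-FRET after EDTA quench, and IC50 values were calculated.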

[2] = molecular target: T2, TYRO3 (Homo sapiens, UniProt Q06418); assay: TR-FRET kinase activity assay, TYRO3; type: biochemical; details: ATP at Km, 60 minutes
T2 sequence (Q06418 41-890): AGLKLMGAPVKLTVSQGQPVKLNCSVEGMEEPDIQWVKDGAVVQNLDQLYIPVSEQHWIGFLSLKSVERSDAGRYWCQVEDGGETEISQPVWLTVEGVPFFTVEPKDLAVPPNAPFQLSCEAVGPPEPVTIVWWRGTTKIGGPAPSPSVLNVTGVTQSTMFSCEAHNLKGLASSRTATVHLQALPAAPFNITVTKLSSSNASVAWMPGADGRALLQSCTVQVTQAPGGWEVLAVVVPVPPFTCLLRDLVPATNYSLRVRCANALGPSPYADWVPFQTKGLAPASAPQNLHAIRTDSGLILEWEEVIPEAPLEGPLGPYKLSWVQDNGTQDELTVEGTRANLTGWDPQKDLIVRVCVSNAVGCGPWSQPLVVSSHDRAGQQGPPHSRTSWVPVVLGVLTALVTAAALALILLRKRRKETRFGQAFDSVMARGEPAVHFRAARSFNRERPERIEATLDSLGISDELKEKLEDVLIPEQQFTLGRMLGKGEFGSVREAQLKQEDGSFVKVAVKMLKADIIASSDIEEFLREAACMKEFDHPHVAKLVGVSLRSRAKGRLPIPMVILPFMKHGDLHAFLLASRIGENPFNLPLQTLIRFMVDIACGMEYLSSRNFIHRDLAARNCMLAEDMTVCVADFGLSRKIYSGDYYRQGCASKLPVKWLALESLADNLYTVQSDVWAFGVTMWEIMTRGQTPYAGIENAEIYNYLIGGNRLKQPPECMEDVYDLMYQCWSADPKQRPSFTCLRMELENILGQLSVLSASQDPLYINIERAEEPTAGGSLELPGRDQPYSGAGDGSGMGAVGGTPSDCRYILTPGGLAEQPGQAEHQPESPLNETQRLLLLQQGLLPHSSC
Summary of the method: as §1

CNC(=O)c1ccc(-c2cc([C@H]3CC[C@H](O)CC3)n3nc(N[C@@H](C)COC)ncc23)cn1 [Compound 317]
IC50 [1]: ≤ 100 nM
FLT3/Mer ratio (FLT3 IC50/Mer IC50) [1]: +++ (“+++” represents a ratio of >100)
IC50 [2]: ≤ 100 nM

COC[C@H](C)Nc1ncc2c(-c3cnn(C(C)(C)C(=O)N4CCC5(COC5)C4)c3)cc([C@H]3CC[C@H](O)CC3)n2n1 [Compound 318]
IC50 [1]: ≤ 100 nM
FLT3/Mer ratio (FLT3 IC50/Mer IC50) [1]: +++ (“+++” represents a ratio of >100)
IC50 [2]: ≤ 100 nM

COC[C@H](C)Nc1ncc2c(-c3cnn(C(C)(C)C(=O)C4C[C@H]5COC[C@H]5C4)c3)cc([C@H]3CC[C@H](O)CC3)n2n1 (stereo partly drawn) [Compound 319]
IC50 [1]: ≤ 100 nM
FLT3/Mer ratio (FLT3 IC50/Mer IC50) [1]: +++ (“+++” represents a ratio of >100)
IC50 [2]: ≤ 100 nM

COC[C@H](C)Nc1ncc2c(-c3cnn(C(C)(C)C(=O)N4C[C@@H](C)O[C@@H](C)C4)c3)cc([C@H]3CC[C@H](O)CC3)n2n1 [Compound 320]
IC50 [1]: ≤ 100 nM
FLT3/Mer ratio (FLT3 IC50/Mer IC50) [1]: +++ (“+++” represents a ratio of >100)
IC50 [2]: ≤ 100 nM

Cc1ccc(-c2cc([C@H]3CC[C@H](O)CC3)n3nc(N[C@@H](C)COC(F)F)ncc23)cn1 [Compound 321]
IC50 [1]: ≤ 100 nM
FLT3/Mer ratio (FLT3 IC50/Mer IC50) [1]: +++ (“+++” represents a ratio of >100)
IC50 [2]: ≤ 100 nM

COCC(C)Nc1ncc2c(-c3cnn(Cc4ccc(=O)n(C)c4)c3)cc(C3CCC(O)CC3)n2n1 (stereo not drawn) [Compound 322]
IC50 [1]: ≤ 100 nM
FLT3/Mer ratio (FLT3 IC50/Mer IC50) [1]: +++ (“+++” represents a ratio of >100)
IC50 [2]: ≤ 100 nM

COC[C@H](C)Nc1ncc2c(-c3cnn(C4CCS(=O)(=O)CC4)c3)cc([C@H]3CC[C@H](O)CC3)n2n1 [Compound 323]
IC50 [1]: ≤ 100 nM
FLT3/Mer ratio (FLT3 IC50/Mer IC50) [1]: +++ (“+++” represents a ratio of >100)
IC50 [2]: ≤ 100 nM

COC[C@H](C)Nc1ncc2c(-c3cnn(C[C@H]4CCC(=O)N4)c3)cc([C@H]3CC[C@H](O)CC3)n2n1 [Compound 324]
IC50 [1]: ≤ 100 nM
FLT3/Mer ratio (FLT3 IC50/Mer IC50) [1]: +++ (“+++” represents a ratio of >100)
IC50 [2]: ≤ 100 nM

COC[C@H](C)Nc1ncc2c(-c3cnn(C(C)(C)C(=O)N4CC5(COC5)C4)c3)cc([C@H]3CC[C@H](O)CC3)n2n1 [Compound 326]
IC50 [1]: ≤ 100 nM
FLT3/Mer ratio (FLT3 IC50/Mer IC50) [1]: +++ (“+++” represents a ratio of >100)
IC50 [2]: ≤ 100 nM

COC[C@H](C)Nc1ncc2c(-c3cnn(C(C)(C)C(=O)N4C[C@H]5CC[C@@H](C4)O5)c3)cc([C@H]3CC[C@H](O)CC3)n2n1 [Compound 327]
IC50 [1]: ≤ 100 nM
FLT3/Mer ratio (FLT3 IC50/Mer IC50) [1]: +++ (“+++” represents a ratio of >100)
IC50 [2]: ≤ 100 nM

COC[C@H](C)Nc1ncc2c(-c3cnn(C(C)(C)C(=O)N4C[C@H](C)O[C@@H](C)C4)c3)cc([C@H]3CC[C@H](O)CC3)n2n1 [Compound 328]
IC50 [1]: ≤ 100 nM
FLT3/Mer ratio (FLT3 IC50/Mer IC50) [1]: +++ (“+++” represents a ratio of >100)
IC50 [2]: ≤ 100 nM

COC[C@H](C)Nc1ncc2c(-c3cnn(Cc4cncc(C)n4)c3)cc([C@H]3CC[C@H](O)CC3)n2n1 [Compound 329]
IC50 [1]: ≤ 100 nM
FLT3/Mer ratio (FLT3 IC50/Mer IC50) [1]: +++ (“+++” represents a ratio of >100)
IC50 [2]: ≤ 100 nM

COC[C@H](C)Nc1ncc2c(-c3cnn(C4CC(C(=O)OC)C4)c3)cc([C@H]3CC[C@H](O)CC3)n2n1 (stereo partly drawn) [Compound 330]
IC50 [1]: ≤ 100 nM
FLT3/Mer ratio (FLT3 IC50/Mer IC50) [1]: +++ (“+++” represents a ratio of >100)
IC50 [2]: ≤ 100 nM

COC[C@H](C)Nc1ncc2c(-c3cnn(C(C)(C)C(=O)N4CCS(=O)(=O)CC4)c3)cc([C@H]3CC[C@H](O)CC3)n2n1 [Compound 331, 1-(1,1-dioxidothiomorpholino)-2-(4-(7-((trans)-4-hydroxycyclohexyl)-2-(((S)-1-methoxypropan-2-yl)amino)pyrrolo[2,1-f][1,2,4]triazin-5-yl)-1H-pyrazol-1-yl)-2-methylpropan-1-one]
IC50 [1]: ≤ 100 nM
FLT3/Mer ratio (FLT3 IC50/Mer IC50) [1]: +++ (“+++” represents a ratio of >100)
IC50 [2]: ≤ 100 nM

COC[C@H](C)Nc1ncc2c(-c3cnn(Cc4cn[nH]c4)c3)cc([C@H]3CC[C@H](O)CC3)n2n1 [Compound 332]
IC50 [1]: ≤ 100 nM
FLT3/Mer ratio (FLT3 IC50/Mer IC50) [1]: +++ (“+++” represents a ratio of >100)
IC50 [2]: ≤ 100 nM

COC[C@H](C)Nc1ncc2c(-c3cnn(Cc4cc(C)nn4C)c3)cc([C@H]3CC[C@H](O)CC3)n2n1 [Compound 333]
IC50 [1]: ≤ 100 nM
FLT3/Mer ratio (FLT3 IC50/Mer IC50) [1]: +++ (“+++” represents a ratio of >100)
IC50 [2]: ≤ 100 nM

CNC(=O)c1ncc(-c2cc([C@H]3CC[C@H](O)CC3)n3nc(N[C@@H](C)COC)ncc23)cn1 [Compound 334]
IC50 [1]: ≤ 100 nM
FLT3/Mer ratio (FLT3 IC50/Mer IC50) [1]: +++ (“+++” represents a ratio of >100)
IC50 [2]: ≤ 100 nM

CNC(=O)c1cc(-c2cc([C@H]3CC[C@H](O)CC3)n3nc(N[C@@H](C)COC)ncc23)cc(C)n1 [Compound 335]
IC50 [1]: ≤ 100 nM
FLT3/Mer ratio (FLT3 IC50/Mer IC50) [1]: +++ (“+++” represents a ratio of >100)
IC50 [2]: ≤ 100 nM

CNS(=O)(=O)c1ccc(-c2cc([C@H]3CC[C@H](O)CC3)n3nc(N[C@@H](C)COC)ncc23)cn1 [Compound 336]
IC50 [1]: ≤ 100 nM
FLT3/Mer ratio (FLT3 IC50/Mer IC50) [1]: +++ (“+++” represents a ratio of >100)
IC50 [2]: ≤ 100 nM

COC[C@H](C)Nc1ncc2c(-c3ccnc(NC(C)C)c3)cc([C@H]3CC[C@H](O)CC3)n2n1 [Compound 337]
IC50 [1]: ≤ 100 nM
FLT3/Mer ratio (FLT3 IC50/Mer IC50) [1]: +++ (“+++” represents a ratio of >100)
IC50 [2]: ≤ 100 nM

COC[C@H](C)Nc1ncc2c(-c3ccnc(N4CCN(S(C)(=O)=O)CC4)c3)cc([C@H]3CC[C@H](O)CC3)n2n1 [Compound 338]
IC50 [1]: ≤ 100 nM
FLT3/Mer ratio (FLT3 IC50/Mer IC50) [1]: +++ (“+++” represents a ratio of >100)
IC50 [2]: ≤ 100 nM

COC[C@H](C)Nc1ncc2c(-c3ccnc(N4CCCC4)c3)cc([C@H]3CC[C@H](O)CC3)n2n1 [Compound 339]
IC50 [1]: ≤ 100 nM
FLT3/Mer ratio (FLT3 IC50/Mer IC50) [1]: +++ (“+++” represents a ratio of >100)
IC50 [2]: ≤ 100 nM

COC[C@H](C)Nc1ncc2c(-c3ccnc(N4CCNC(=O)C4)c3)cc([C@H]3CC[C@H](O)CC3)n2n1 [Compound 340]
IC50 [1]: ≤ 100 nM
FLT3/Mer ratio (FLT3 IC50/Mer IC50) [1]: +++ (“+++” represents a ratio of >100)
IC50 [2]: ≤ 100 nM

COC[C@H](C)Nc1ncc2c(-c3ccnc(OC4CCCN(C)C4)c3)cc([C@H]3CC[C@H](O)CC3)n2n1 (stereo partly drawn) [Compound 341]
IC50 [1]: ≤ 100 nM
FLT3/Mer ratio (FLT3 IC50/Mer IC50) [1]: +++ (“+++” represents a ratio of >100)
IC50 [2]: ≤ 100 nM

COC[C@H](C)Nc1ncc2c(-c3ccnc(OC4CCN(C)CC4)c3)cc([C@H]3CC[C@H](O)CC3)n2n1 [Compound 342]
IC50 [1]: ≤ 100 nM
FLT3/Mer ratio (FLT3 IC50/Mer IC50) [1]: +++ (“+++” represents a ratio of >100)
IC50 [2]: ≤ 100 nM

COC[C@H](C)Nc1ncc2c(-c3ccnc(OC(C)C)c3)cc([C@H]3CC[C@H](O)CC3)n2n1 [Compound 343]
IC50 [1]: ≤ 100 nM
FLT3/Mer ratio (FLT3 IC50/Mer IC50) [1]: +++ (“+++” represents a ratio of >100)
IC50 [2]: ≤ 100 nM
